{"source": "patent US20220273678A1", "about": "(priority 2020, published 2022)", "key": {"[1]": {"conditions": "cited from earlier work"}, "SARS-CoV-2": {"test_system": "SARS-CoV-2", "assay": "Post-exposure prophylaxis in two parents of a household exposed to SARS-CoV-2", "type": "in vivo, human", "source_text": "FIG. 8-a show the timeline of exposure, symptoms and diagnostic tests in household. Two parents [[…], A1 with history of chronic myelogenous leukemia (CML) and healthy parent 39 years, A2] were notified on Dec. 5, 2020 [defined as day 5 (D5)], that the schoolteacher (T1) of their child (C1) tested positive for SARS-CoV-2 and developed symptoms of Covid-19. C1 had 6-h exposure to T1 on November 30 (with masks) (D0). The family had no other exposure to any other person between November 20-30 (D-10 to D0) given Thanksgiving Day on November 26 (D-4). Several children and parents from the same school class were infected with Covid-19 within the first 2 weeks of December. C1 developed fever (100.4° F.; 38° C.) and fatigue 2.5 days after exposure (D0) that lasted 3 days (D2-D5) and remained asymptomatic since then. The second child (C2) was asymptomatic until D12 when they developed fever (100.4° F.; 38° C.), fatigue and coryza on D12-D14. A1 and A2 started Mito-MES on D4. […]\nOne important consideration with COVID-19 testing is that it is often unclear how exactly the NP swab was obtained (by healthcare worker or not and whether the posterior or anterior nasopharynx were assessed). […]"}, "IL-6": {"test_system": "IL-6", "type": "cell-based, African green monkey", "conditions": "Mito-MES 10-1000 nM, 4F 10 μM"}}}
{"smiles": "COC1=C(OC)C(=O)C(CCCCCCCCCC[P+](c2ccccc2)(c2ccccc2)c2ccccc2)=C(C)C1=O.CS(=O)(=O)[O-]", "note": "[Mito-MES, 10-(4,5-dimethoxy-2-methyl-3,6-dioxo-1,4-cyclohexadienyl) decyl triphenylphosphonium methanesulfonate]", "values": [{"measurement": "average elevation of fasting plasma concentrations", "setting": "[1]; 40-80 mg/day, after about 10 days", "result": "about 5 ng/mL"}, {"measurement": "plasma concentration after 24 h", "setting": "[1]; humans, single 40 mg oral dose", "result": "about 2 ng/ml"}, {"measurement": "maximal plasma concentration", "setting": "[1]; humans, single 80 mg oral dose", "result": 33, "unit": "ng/mL"}, {"measurement": "time of maximal plasma concentration", "setting": "[1]; humans, single 80 mg oral dose", "result": "about 1 h"}, {"measurement": "plasma IgG to SARS-CoV-2 S1 protein", "setting": "SARS-CoV-2; each parent, three timepoints over 5 weeks", "result": "undetectable levels"}, {"measurement": "symptoms and virological / serological confirmation of infection", "setting": "SARS-CoV-2; two parents, 20 mg/day oral Mito-MES from D4, 6 weeks", "result": "remained asymptomatic and without virological and serological confirmation of infection"}, {"measurement": "SARS-CoV-2-induced secretion of IL-6", "setting": "IL-6", "result": "attenuated the increase in secretion of IL-6"}]}
